Read-outs that look alike come from different tables or passages of the source.
Tests used:
rat mGlu2 receptor = rat mGlu2 receptor (Rattus norvegicus (Rat), UniProt P31421); assay: mGlu2 in vitro GIRK thallium flux assay; assay type: cell-based; details: NAM, EC80 glutamate, HEK-293 GIRK cells
How it was run: (§1)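 Cells expressing rat mGlu2 or mGlu3 with GIRK, plated overnight at 37 °C. Test compounds (0.3% DMSO, 10-point 1:3 series) preincubated 2.5 or 60 min, then thallium buffer plus EC80 glutamate added. Fluorescence slope 5–15 s after addition, normalised to vehicle and maximal agonist, fitted by four-parameter logistic.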

Male Wistar rats = assay: Forced Swim Test (FST); assay type: in vivo; details: rat; immobility and swimming; FIG. 1
Method: Male Wistar rats (Charles River, Hollister, Calif.), weighing 175-225 g (Charles River, Portage, Ind.) used for the forced swim test study were housed in pairs with food and water available ad libitum, except during testing, in a temperature and humidity controlled vivarium (21° C.). Rats were maintained on a 12-hour reverse light-dark cycle with lights on at 6 pm. All experimental procedures occurred during the dark cycle, were approved by the Institutional Animal Care and Use Committee of the Scripps Research Institute, and were in accordance with the Association for the Assessment and Accreditation of Laboratory Animal Care (AAALAC) guidelines. […]
After the habituation swim and 24 hours prior to the test swim, rats were administered one of three doses of a mGlu2/3 NAM, with doses and pretreatment time based on maximal brain penetration as determined by PK studies for each compound. Blood and brain tissue were collected immediately after the FST and the PK properties of each compound were analyzed together with FST behavior. […] Twenty-four hours after their first exposure, the animals were again placed in the swim apparatus for 5 min, and behaviors were monitored from above by video camera for subsequent analysis. The rater of the behavioral patterns was blind with respect to the experimental conditions being scored. […]

rat mGlu3 receptor = rat mGlu3 receptor (Rattus norvegicus (Rat), UniProt P31422); assay: mGlu3 in vitro GIRK thallium flux assay; assay type: cell-based; details: NAM; 2.5 min compound incubation; EC80 glutamate; HEK-293 GIRK cells
Chain of rat mGlu3 receptor (P31422 23-879): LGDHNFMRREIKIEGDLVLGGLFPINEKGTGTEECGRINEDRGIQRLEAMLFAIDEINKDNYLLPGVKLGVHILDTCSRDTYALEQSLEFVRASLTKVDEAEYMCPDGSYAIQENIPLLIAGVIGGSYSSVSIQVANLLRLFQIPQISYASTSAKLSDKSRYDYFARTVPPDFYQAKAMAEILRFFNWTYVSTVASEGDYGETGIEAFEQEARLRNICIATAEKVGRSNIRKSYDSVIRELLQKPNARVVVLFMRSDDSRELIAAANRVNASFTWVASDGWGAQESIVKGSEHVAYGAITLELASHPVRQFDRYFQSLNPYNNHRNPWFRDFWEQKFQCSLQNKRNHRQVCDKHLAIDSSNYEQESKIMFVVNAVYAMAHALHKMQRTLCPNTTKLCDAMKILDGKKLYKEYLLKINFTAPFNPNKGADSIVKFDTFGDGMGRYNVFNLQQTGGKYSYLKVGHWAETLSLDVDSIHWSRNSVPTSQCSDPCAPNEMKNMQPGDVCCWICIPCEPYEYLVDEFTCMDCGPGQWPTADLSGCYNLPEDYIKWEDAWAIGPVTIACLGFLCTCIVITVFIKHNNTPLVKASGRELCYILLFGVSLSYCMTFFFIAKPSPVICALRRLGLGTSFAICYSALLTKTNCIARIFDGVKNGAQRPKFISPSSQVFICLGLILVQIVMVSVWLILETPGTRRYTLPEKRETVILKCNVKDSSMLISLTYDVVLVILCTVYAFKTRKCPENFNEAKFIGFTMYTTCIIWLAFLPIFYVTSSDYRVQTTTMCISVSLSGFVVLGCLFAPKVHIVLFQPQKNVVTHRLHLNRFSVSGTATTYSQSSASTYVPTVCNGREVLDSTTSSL
How it was run: as §1

[1] = PK: brain and plasma levels collected after the FST; assay type: in vivo, rat; details: Wistar
Method: After the habituation swim and 24 hours prior to the test swim, rats were administered one of three doses of a mGlu2/3 NAM, with doses and pretreatment time based on maximal brain penetration as determined by PK studies for each compound. Blood and brain tissue were collected immediately after the FST and the PK properties of each compound were analyzed together with FST behavior. The modified forced swim test was carried out as described previously in Cryan et al., 2003. Briefly, rats were taken from the vivarium and immediately placed individually for 15 min in Pyrex cylinders (21×46 cm; Fisher Scientific, Tustin, Calif.), which were filled with water to a depth of 30 cm. The testing room was bright, and two bright (60-watt) lamps provided extra illumination above the cylinders. The rats were removed 15 min later, dried, and placed in their home cage. Twenty-four hours after their first exposure, the animals were again placed in the swim apparatus for 5 min, and behaviors were monitored from above by video camera for subsequent analysis. The rater of the behavioral patterns was blind with respect to the experimental conditions being scored. A time sampling technique was employed whereby the predominant behavior in each 5-sec period of the 300-sec test was recorded. Climbing behavior consisted of upward-directed movements of the forepaws along the side of the swim chamber. Swimming behavior was defined as movement (usually horizontal) throughout the swim chamber, which also included crossing into another quadrant. Immobility was assigned when no additional activity was observed other than that required to keep the rat's head above water.

reserpine-treated rat = details: cited from earlier work
SMI-32+ motor neurons = details: abrogated by anti-GDNF antibodies; cited from earlier work
[2] = system: cultured spinal cord astrocytes; details: astrocytes from wild-type and mGlu2 knockout mice, not mGlu3 knockout mice; cited from earlier work
R6/2 mice = details: 20 mg/kg daily subcutaneous injection beginning at 4 weeks; cited from earlier work
SOD1G93A mice = details: continuous treatment with 1 or 5 mg/kg/day; cited from earlier work

Chain of rat mGlu2 receptor (P31421 19-872): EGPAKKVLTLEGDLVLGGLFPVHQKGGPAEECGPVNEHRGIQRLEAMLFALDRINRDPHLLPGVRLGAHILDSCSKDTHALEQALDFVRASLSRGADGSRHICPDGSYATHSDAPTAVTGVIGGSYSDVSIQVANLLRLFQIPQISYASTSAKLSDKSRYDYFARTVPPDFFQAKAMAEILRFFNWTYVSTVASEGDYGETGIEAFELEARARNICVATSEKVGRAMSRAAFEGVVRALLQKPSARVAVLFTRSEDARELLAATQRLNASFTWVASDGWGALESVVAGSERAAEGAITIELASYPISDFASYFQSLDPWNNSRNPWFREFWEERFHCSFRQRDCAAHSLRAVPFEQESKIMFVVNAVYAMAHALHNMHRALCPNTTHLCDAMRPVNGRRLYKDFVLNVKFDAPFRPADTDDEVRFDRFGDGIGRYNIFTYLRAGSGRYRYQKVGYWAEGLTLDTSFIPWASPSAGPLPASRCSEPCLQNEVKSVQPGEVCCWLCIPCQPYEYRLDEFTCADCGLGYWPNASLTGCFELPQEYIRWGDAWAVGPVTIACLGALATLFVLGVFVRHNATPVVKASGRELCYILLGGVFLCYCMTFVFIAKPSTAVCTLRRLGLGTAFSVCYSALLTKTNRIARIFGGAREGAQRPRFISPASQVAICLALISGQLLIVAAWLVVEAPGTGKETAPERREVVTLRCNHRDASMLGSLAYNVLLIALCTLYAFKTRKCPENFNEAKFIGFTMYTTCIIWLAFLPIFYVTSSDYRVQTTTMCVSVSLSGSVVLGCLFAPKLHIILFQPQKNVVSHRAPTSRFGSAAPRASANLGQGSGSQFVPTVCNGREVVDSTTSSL

| Structure (SMILES) | EC50 (rat mGlu2 receptor; 2.5 min compound incubation, read-out: mGlu2 EC50 (μM) (2.5 min)) | EC50 (rat mGlu2 receptor; read-out: mGlu2 EC50 (μM) (60 min), 60 min compound incubation) | antidepressant activity in the Forced Swim Test (Male Wistar rats) | EC50 (rat mGlu3 receptor) | concentration at 24 h ([1]; rat brain tissue, read-out: Brain) | concentration at 24 h ([1]; rat plasma, read-out: Plasma) | locomotor activity (reserpine-treated rat; intracerebroventricular 1, 5, 10, 20 nmol/2 μl, reserpine 5 mg/kg ip) | reversal of reserpine-induced akinesia (reserpine-treated rat; systemic 0.1, 1, 10 mg/kg ip) | protection of motor neurons against excitotoxic death (SMI-32+ motor neurons) | GDNF levels [2] | phenotype in R6/2 mice (R6/2 mice) | neurological disability (SOD1G93A mice) |
| --- | --- | --- | --- | --- | --- | --- | --- | --- | --- | --- | --- | --- |
| O=C1CC(c2ccnc(Br)c2)=Nc2ccc(C(F)(F)F)cc2N1 [Example 191, 4-(2-Bromopyridin-4-yl)-8-(trifluoromethyl)-1,3-dihydro-2H-benzo[b][1,4]diazepin-2-one] | 0.25 µM | 0.08 µM | decreasing immobility and increasing swimming | 0.18 µM | 1430 ± 460 nM | 280 ± 60 nM | – | – | – | – | – | – |
| N[C@@]1(C(=O)O)CO[C@H]2[C@H](C(=O)O)[C@H]21 [LY379268] | – | – | – | – | – | – | dose-dependent increase in locomotor activity | did not reverse reserpine-induced akinesia | protected | enhanced GDNF levels | dramatically improves the phenotype | beneficial effect on neurological disability |

From patent US9969726B2, “Metabotropic glutamate receptor negative allosteric modulators (NAMS) and uses thereof” (Sanford-Burnham Medical Research Institute, priority 2014, dated 2018)
